From publication PMC11242993, “Evaluation of the Therapeutic Potential of Sulfonyl Urea Derivatives as Soluble Epoxide Hydrolase (sEH) Inhibitors” (Molecules, 2024) come the findings set out here.

One data set in a line: Microsomal stability. The data set is classed as in vitro ADME. To be noted: pH 7.4, human liver microsomes; for remaining at 1 h, 2 μM: read-out: Human Metabolic Stability % Remaining after 1 h; for half-life at 2 μM: read-out: Human Metabolic Stability Half Life. How it is done:
Human microsomal incubations were carried out in 96-well plates in 5 aliquots of 30 μL each (one for each time point). Human liver microsomal incubation medium comprised of phosphate buffer (100 mM, pH 7.4), MgCl2 (3.3 mM), NADPH (3 mM), glucose-6-phosphate (5.3 mM), glucose-6-phosphate dehydrogenase (0.67 units/mL) with 0.42 mg of liver microsomal protein per ml. In the control reactions, the NADPH-cofactor system was substituted with phosphate buffer. Test compounds (2 μM, final solvent concentration 1.6%) were incubated with microsomes at 37 °C and shaken at 100 rpm. Each reaction was performed in duplicates. Five time points over 40 min were analyzed. The reactions were stopped by adding 5 volumes of methanol containing the internal standard to the incubation aliquots, followed by protein sedimentation by centrifuging at 5500 rpm for 4 min. Supernatants were analyzed using the HPLC system coupled with a tandem mass spectrometer.
In general terms: Liver microsomes are a subcellular fraction often used to study metabolism.

Data set [1] in a line: Plasma protein binding (equilibrium dialysis), human. Type of data set: in vitro ADME. To be noted: for fraction unbound at 5 h, 1 μM: plasma (non-diluted), pH 7.4, read-out: Plasma Protein Binding Human % of Bound Comp. The method, then: (§1) The assay was performed in a multiple-use 96-well dialysis unit (HTD96b dialyzer). Each individual well unit consisted of 2 chambers separated by a vertically aligned dialysis membrane of predetermined pore size (MWCO 12–14 kDa). An amount of 120 μL of non-diluted plasma spiked with the compound (1 μM, final DMSO concentration 1%) was added to one chamber, and the same volume of PBS buffer with pH 7.4 was added to the other chamber. The HTD96b dialyzer was covered with adhesive sealing film and incubated at 37 °C and shaken at 100 rpm for 5 h. For sample preparation, an aliquot of the content of each chamber was mixed with the same volume of the blank opposite matrix. To define the non-specific loss of the compound during this assay, a standard solution was created by mixing an aliquot of spiked plasma with a blank buffer without dialysis. Two aliquots of the standard solution were incubated at 37 °C and shaken at 100 rpm for 5 h (recovery samples). The other two aliquots were immediately diluted with acetonitrile and stored at 4 °C until LC–MS/MS analysis (stability samples). All samples were diluted 5-fold with 100% methanol with subsequent plasma protein sedimentation by centrifuging at 6000 rpm for 5 min. Supernatants were analyzed using the HPLC system coupled with a tandem mass spectrometer.
(Equilibrium dialysis compares concentrations on both sides of a semipermeable membrane.)

Data set [2] is described as follows: Plasma protein binding (equilibrium dialysis), mouse. Type of data set: in vitro ADME. The settings on record: for fraction unbound at 5 h, 1 μM: plasma (non-diluted), pH 7.4, read-out: Plasma Protein Binding Mouse % of Bound Comp (converted). The method, then: as §1
Another data set is described as follows: Caco-2 permeability. The settings on record: human, Caco-2, pH 7.4. Type of data set: in vitro ADME. How it is done:
Caco-2 cells were cultured in 75 cm^2 flasks to 80–90% confluence according to the ATCC and Millipore recommendations in a humidified atmosphere at 37 °C and 5% CO2. Cells were detached with a trypsin/EDTA solution, resuspended in the complete medium containing DMEM high glucose ([…]) with L-glutamine (4 mM) supplemented with 10% heat-inactivated Fetal Bovine Serum, 1% non-essential amino acids, and 730 nM puromycin, and seeded at a density of 5 × 10^5 cells in a 75 cm^2 flask. After 5 days, cells were trypsinized and resuspended in the complete medium to a final concentration of 600 × 10^3 cells/mL. Of the cell suspension, 400 µL was added to each well of an HTS 24-Multiwell Insert System and 25 mL of prewarmed complete medium was added to the feeder tray. Caco-2 cells were incubated in the Multiwell Insert System for 6–10 days before the transport experiments. The medium in the filter plate and feeder tray was refreshed every other day. Prior to the transport experiment, the integrity of the monolayer was verified by measuring the transepithelial electrical resistance (TEER) for every well using a Millicell-ERS system ohm meter. The final TEER values were within the range of 150–600 Ω × cm^2, as required for the assay conditions. The 24-well insert plate was removed from its feeder plate and placed in a new sterile 24-well transport analysis plate. The inserts were washed with PBS after medium aspiration. Ketoprofen, atenolol, digoxin, and quinidine were used as reference compounds.
To determine transport rates in the basolateral (B)-to-apical (A) direction, 1000 μL of the test compound solutions was added into the wells of the transport analysis plate, and the wells in the filter plate were filled with 300 μL of buffer (apical compartment).
The effect of the inhibitor on the Pgp-mediated transport of the tested compounds was assessed by determining the bidirectional transport in the presence or absence of verapamil. The Caco-2 cells were preincubated for 30 min at 37 °C with 100 μM of verapamil in both apical and basolateral compartments. After removal of the preincubation medium, the test compounds with verapamil (100 μM) in transport buffer were added in donor wells, while the receiver wells were filled with the appropriate volume of transport buffer with 100 μM of verapamil. The final amounts of test and reference compounds were 10 μM each. The plates were incubated for 90 min at 37 °C under continuous shaking at 100 rpm. Aliquots of 75 μL were taken from the donor and receiver compartments for LC–MS/MS analysis. All samples were mixed with 2 volumes of acetonitrile followed by protein sedimentation by centrifuging at 10,000 rpm for 10 min. Supernatants were analyzed using the HPLC system coupled with a tandem mass spectrometer.
(In general: Caco-2 monolayers are a common model of the intestinal barrier.)

The subject of another data set is C57BL/6J male mice. In words: Hot plate model. Type of data set: in vivo. To be noted: 10 mg/kg i.p. How it is done: Thermal nociception in the hot plate test was assessed with a commercially available apparatus (Hotplate Analgesia Meter, Columbus Instruments) consisting of a metal plate to a constant temperature of 55.0 ± 0.1 °C. Mice were put into the hot plate testing instrument to adapt for at least 15 min. The device was connected to a manually operated timer that recorded the amount of time the mouse spent on the heated surface before showing signs of nociception (e.g., licked its paws or jumped), the cut-off time was 60 s. The baseline (basic pain threshold, the response was more than 25 s, and the jumping mice were excluded.) was calculated as the mean of three readings recorded before testing at intervals of 15 min. The time course of latency was then determined at 15, 30, 45, 60, 90, and 120 min after compound treatment. Data were analyzed as time-course curves of the percentage of maximum effect MPE% = (post drug latency − baseline latency) × 100/(cut-off time − baseline latency). C57BL/6J male mice obtained from The Jackson Laboratory (Bar Harbor, ME, USA) weighing 28 g were used for the hot plate test. Animal procedures were conducted following the rules and regulations of the Institutional Animal Care and Use Committee of the National Institute on Alcohol Abuse and Alcoholism (NIAAA) under the protocols of LPS-GK1.

For the molecule `O=C(NC12CC3CC(CC(C3)C1)C2)NS(=O)(=O)c1ccc(OC(F)(F)F)cc1` [Compound 4f], in the data set “Microsomal stability”, the amount remaining at 1 h, 2 μM amounted to 80% and the half-life at 2 μM was 1.77 h. For the same molecule, in data set [1], the “compound stability in plasma during dialysis” value is on record as 99% and the fraction unbound at 5 h, 1 μM is under 0.001. In addition, in data set [2], the “compound recovery/stability in mouse plasma after 5 h incubation (%)” value was 106% and the fraction unbound at 5 h, 1 μM was 0.02. In addition, the Papp A→B at 90 min, 10 µM in the data set “Caco-2 permeability” (A to B, read-out: Caco-2 Permeability Apical to Basal (Papp)) was determined as 149 nm/s. For the same molecule, the Papp B→A at 90 min, 10 µM in the data set “Caco-2 permeability” (B to A, read-out: Caco-2 Permeability Basal to Apical (Papp)) stood at 126 nm/s. In addition, the “analgesic effect in hot plate assay” value with C57BL/6J male mice is “none of the sEH inhibitors, including AUDA, showed any analgesic effect”.
As for `O=C(NC12CC3CC(CC(C3)C1)C2)NS(=O)(=O)c1ccc2ccccc2c1` [Compound 4l], in “Microsomal stability”, the fraction remaining at 1 h, 2 μM amounted to 45% and the half-life at 2 μM amounted to 0.557 h. In data set [1], the “compound stability in plasma during dialysis” value was 99% and the fraction unbound at 5 h, 1 μM was under 0.001. In data set [2], the “compound recovery/stability in mouse plasma after 5 h incubation (%)” value was 88% and the fraction unbound at 5 h, 1 μM was 0.02. For the same molecule, in the data set with C57BL/6J male mice, the “analgesic effect in hot plate assay” value was “none of the sEH inhibitors, including AUDA, showed any analgesic effect”.

As a reminder, the share remaining is what is left of the initial amount, in per cent. For orientation: half-life means how long it takes for the measured level to halve.
